Data on 28 compounds can be found in US9290451B2 (Hoffmann-La Roche Inc., priority 2011, dated 2016).

One experiment addresses human CB2 receptors (Homo sapiens (Human), UniProt P34972). In words: cAMP assay, CHO cells expressing human CB2 receptors. Format: cell-based. Particulars: CHO cells expressing human CB2, cAMP; read-out: human CB2 EC50. The procedure:
(§1) CHO cells expressing human CB1 or CB2 receptors are seeded 17-24 hours prior to the experiment 50.000 cells per well in a black 96 well plate with flat clear bottom (Corning Costar #3904) in DMEM (Invitrogen No. 31331), 1×HT supplement, with 10% fetal calf serum and incubated at 5% CO2 and 37° C. in a humidified incubator. The growth medium was exchanged with Krebs Ringer Bicarbonate buffer with 1 mM IBMX and incubated at 30° C. for 30 min Compounds were added to a final assay volume of 100 μl and incubated for 30 min at 30° C. Using the cAMP-Nano-TRF detection kit the assay (Roche Diagnostics) was stopped by the addition of 50 μl lysis reagent (Tris, NaCl, 1.5% Triton X100, 2.5% NP40, 10% NaN3) and 50 μl detection solutions (20 μM mAb Alexa700-cAMP 1:1, and 48 μM Ruthenium-2-AHA-cAMP) and shaken for 2 h at room temperature. The time-resolved energy transfer is measured by a TRF reader (Evotec Technologies GmbH), equipped with a ND:YAG laser as excitation source. The plate is measured twice with the excitation at 355 nm and at the emission with a delay of 100 ns and a gate of 100 ns, total exposure time 10 s at 730 (bandwidth 30 nm) or 645 nm (bandwidth 75 nm), respectively. The FRET signal is calculated as follows: FRET=T730-Alexa730-P(T645-B645) with P═Ru730-B730/Ru645-B645, where T730 is the test well measured at […], T645 is the test well measured at 645 nm, B730 and B645 are the buffer controls at 730 nm and 645 nm, respectively. cAMP content is determined from the function of a standard curve spanning from 10 μM to 0.13 nM cAMP.
(§2) EC50 values were determined using Activity Base analysis (ID Business Solution, Limited). The EC50 values for a wide range of cannabinoid agonists generated from this assay for reference compounds were in agreement with the values published in the scientific literature.
In general terms: cAMP levels reflect the balance of adenylyl cyclase and phosphodiesterase activity.

For another experiment, the target named is human CB1 receptors (Homo sapiens (Human), UniProt P21554). In words: cAMP assay, CHO cells expressing human CB1 receptors. Type of experiment: cell-based. The following applies: CHO cells expressing human CB1, cAMP; read-out: human CB1 EC50. As for the experimental part:
as §1, §2

By EC50 is commonly meant the concentration at which the effect is half-maximal.

Molecules are shown by their SMILES.

human CB1 receptors, sequence (P21554 whole entry): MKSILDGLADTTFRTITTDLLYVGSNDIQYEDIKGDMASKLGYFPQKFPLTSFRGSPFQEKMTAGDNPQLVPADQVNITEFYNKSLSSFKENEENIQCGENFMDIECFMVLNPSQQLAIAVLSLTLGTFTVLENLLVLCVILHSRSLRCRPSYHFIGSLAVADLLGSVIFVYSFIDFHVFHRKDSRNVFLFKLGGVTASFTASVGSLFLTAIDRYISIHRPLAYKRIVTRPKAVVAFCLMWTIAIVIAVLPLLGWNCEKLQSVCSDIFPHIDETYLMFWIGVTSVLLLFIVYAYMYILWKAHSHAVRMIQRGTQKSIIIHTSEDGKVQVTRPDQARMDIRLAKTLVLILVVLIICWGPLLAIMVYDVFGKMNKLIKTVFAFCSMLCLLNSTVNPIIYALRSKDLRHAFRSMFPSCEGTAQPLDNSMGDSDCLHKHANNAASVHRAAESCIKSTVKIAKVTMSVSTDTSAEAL
human CB2 receptors, sequence (P34972 whole entry): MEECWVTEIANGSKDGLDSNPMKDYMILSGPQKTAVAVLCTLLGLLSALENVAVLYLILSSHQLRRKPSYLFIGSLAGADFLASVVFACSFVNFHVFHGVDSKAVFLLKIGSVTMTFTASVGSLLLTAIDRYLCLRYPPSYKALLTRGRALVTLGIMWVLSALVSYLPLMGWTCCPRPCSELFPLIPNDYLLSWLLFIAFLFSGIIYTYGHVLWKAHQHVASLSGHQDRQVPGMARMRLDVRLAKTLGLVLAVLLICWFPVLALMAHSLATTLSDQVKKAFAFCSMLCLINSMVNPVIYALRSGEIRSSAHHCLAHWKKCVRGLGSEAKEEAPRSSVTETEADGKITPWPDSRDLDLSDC

On to `CCC(CC)(CO)NC(=O)c1cccc(-c2cccc(Cl)c2)n1` [Example 29, 6-(3-Chloro-phenyl)-pyridine-2-carboxylic acid (1-ethyl-1-hydroxymethyl-propyl)-amide], for which the concentration giving a half-maximal response (EC50) on human CB2 receptors is 324 nM; at human CB1 receptors, more than 10000 nM.

As for `O=C(NC1CCCOC1)c1cccc(-c2cccc(Cl)c2)n1` (centres unmarked) [Example 30, 6-(3-Chloro-phenyl)-pyridine-2-carboxylic acid (tetrahydro-pyran-3-yl)-amide], the EC50 was 658 nM on human CB2 receptors and more than 10000 nM on human CB1 receptors.

Turning to `O=C(c1ccc(N2CCCC2)c(OCC2CC2)n1)N1CC2(COC2)C1` [Example 31, (6-Cyclopropylmethoxy-5-pyrrolidin-1-yl-pyridin-2-yl)-(2-oxa-6-aza-spiro[3.3]hept-6-yl)-methanone], the EC50 was 423 nM on human CB2 receptors and more than 10000 nM at human CB1 receptors.

As to `CC(C)C[C@H](NC(=O)c1ccc(N2CCCC2C)c(OCC2CC2)n1)C(N)=O` (stereo partly drawn) [Example 32, 6-Cyclopropylmethoxy-5-(2-methyl-pyrrolidin-1-yl)-pyridine-2-carboxylic acid ((S)-1-carbamoyl-3-methyl-butyl)-amide], the results for the concentration giving a half-maximal response (EC50) at human CB2 receptors and on human CB1 receptors were 1.55 nM and 1390 nM, respectively.

With `Cc1nc(C(C)(C)NC(=O)c2ccc(N3CCCC3)c(OCC3CC3)n2)no1` [Example 33, 6-Cyclopropylmethoxy-5-pyrrolidin-1-yl-pyridine-2-carboxylic acid [1-methyl-1-(5-methyl-[1,2,4]oxadiazol-3-yl)-ethyl]-amide], the concentration giving a half-maximal response (EC50) at human CB2 receptors is 23.1 nM; at human CB1 receptors, more than 10000 nM.

Regarding `CC(C)(NC(=O)c1ccc(C2CCOCC2)c(OCC2CC2)n1)c1nccs1` [Example 34, 6-Cyclopropylmethoxy-5-(tetrahydro-pyran-4-yl)-pyridine-2-carboxylic acid (1-methyl-1-thiazol-2-yl-ethyl)-amide], the EC50 at human CB2 receptors is 53.7 nM; on human CB1 receptors it was more than 10000 nM.

In the case of `CC(C)(CCN1CCOCC1)NC(=O)c1ccc(N2CCCC2)c(OCC2CC2)n1` [Example 35, 6-Cyclopropylmethoxy-5-pyrrolidin-1-yl-pyridine-2-carboxylic acid (1,1-dimethyl-3-morpholin-4-yl-propyl)-amide], the values for the concentration giving a half-maximal response (EC50) on human CB2 receptors and at human CB1 receptors were 7.1 nM and more than 10000 nM, respectively.

With `CNC(=O)C(C)(C)NC(=O)c1ccc(C)c(OCC2CC2)n1` [Example 36, 6-Cyclopropylmethoxy-5-methyl-pyridine-2-carboxylic acid (1-methyl-1-methylcarbamoyl-ethyl)-amide], the EC50 on human CB2 receptors is 974 nM; at human CB1 receptors, more than 10000 nM.

For the compound `O=C(NN1CCCCC1)c1cccc(C2CCOCC2)n1` [Example 37, 6-(Tetrahydro-pyran-4-yl)-pyridine-2-carboxylic acid piperidin-1-ylamide], the figures for the concentration giving a half-maximal response (EC50) on human CB2 receptors and on human CB1 receptors were 625 nM and more than 10000 nM, respectively.

As to `Cc1nc([C@H](CC2CC2)NC(=O)c2cccc(-c3cccc(Cl)c3)n2)no1` [Example 38], the results for the half-maximal effective concentration (EC50) at human CB2 receptors and at human CB1 receptors were 99.7 nM and more than 10000 nM, respectively.

On to `CNC(=O)C(C)(C)NC(=O)c1ccc(C2CCCC2)c(OCC2CC2)n1` [Example 40, 5-Cyclopentyl-6-cyclopropylmethoxy-pyridine-2-carboxylic acid (1-methyl-1-methylcarbamoyl-ethyl)-amide], for which the EC50 on human CB2 receptors was 30.8 nM; on human CB1 receptors it was more than 10000 nM.

In the case of `Cc1nc(C(C)(C)NC(=O)c2cccc(-c3cccc(Cl)c3)n2)no1` [Example 41, 6-(3-Chloro-phenyl)-pyridine-2-carboxylic acid [1-methyl-1-(5-methyl-[1,2,4]oxadiazol-3-yl)-ethyl]-amide], the EC50 on human CB2 receptors is 99.9 nM; on human CB1 receptors it was more than 10000 nM.

As for `O=C(NN1CCCCC1)c1ccc(C2CC2)c(OCC2CC2)n1` [Example 42, 5-Cyclopropyl-6-cyclopropylmethoxy-pyridine-2-carboxylic acid piperidin-1-ylamide], the values for the EC50 on human CB2 receptors and on human CB1 receptors were 1480 nM and more than 10000 nM, respectively.

Turning to `CNC(=O)C(C)(C)NC(=O)c1ccc(C2CC2)c(OCC2CC2)n1` [Example 43, 5-Cyclopropyl-6-cyclopropylmethoxy-pyridine-2-carboxylic acid (1-methyl-1-methylcarbamoyl-ethyl)-amide], the results for the EC50 on human CB2 receptors and at human CB1 receptors were 275 nM and more than 10000 nM, respectively.

`CC(C)(NC(=O)c1ccc(C2CC2)c(OCC2CC2)n1)c1nccs1` [Example 44, 5-Cyclopropyl-6-cyclopropylmethoxy-pyridine-2-carboxylic acid (1-methyl-1-thiazol-2-yl-ethyl)-amide]: the half-maximal effective concentration (EC50) is 13.5 nM on human CB2 receptors and 1610 nM at human CB1 receptors.

`Cc1nc(C(C)(C)NC(=O)c2ccc(C3CC3)c(OCC3CC3)n2)no1` [Example 45, 5-Cyclopropyl-6-cyclopropylmethoxy-pyridine-2-carboxylic acid [1-methyl-1-(5-methyl-[1,2,4]oxadiazol-3-yl)-ethyl]-amide]: the figures for the EC50 at human CB2 receptors and at human CB1 receptors were 87.1 nM and 1060 nM, respectively.

For `O=C(NN1CCCCC1)c1cccc(-c2ccc(Cl)cc2)n1` [Example 46, 6-(4-Chloro-phenyl)-pyridine-2-carboxylic acid piperidin-1-ylamide], the EC50 is 290 nM on human CB2 receptors and more than 10000 nM on human CB1 receptors.

As to `Cc1ccc(C(=O)NN2CCCCC2)nc1OCC1CC1` [Example 47, 6-Cyclopropylmethoxy-5-methyl-pyridine-2-carboxylic acid piperidin-1-ylamide], the EC50 was 138 nM on human CB2 receptors and more than 10000 nM on human CB1 receptors.

In the case of `Cc1ccc(C(=O)NC(C)(C)c2ncco2)nc1-c1cccc(Cl)c1` [Example 49, 6-(3-Chloro-phenyl)-5-methyl-pyridine-2-carboxylic acid (1-methyl-1-oxazol-2-yl-ethyl)-amide], the EC50 on human CB2 receptors was 308 nM; at human CB1 receptors, more than 10000 nM.

For `Cc1ccc(C(=O)NC(C)(C)c2nccs2)nc1-c1cccc(Cl)c1` [Example 50, 6-(3-Chloro-phenyl)-5-methyl-pyridine-2-carboxylic acid (1-methyl-1-thiazol-2-yl-ethyl)-amide], the EC50 was 133 nM on human CB2 receptors and 1490 nM on human CB1 receptors.

Consider `Cc1nc(C(C)(C)NC(=O)c2ccc(C)c(-c3cccc(Cl)c3)n2)no1` [Example 51, 6-(3-Chloro-phenyl)-5-methyl-pyridine-2-carboxylic acid [1-methyl-1-(5-methyl-[1,2,4]oxadiazol-3-yl)-ethyl]-amide], for which the concentration for a half-maximal effect (EC50) at human CB2 receptors was 127 nM; at human CB1 receptors, more than 10000 nM.

For the compound `Cc1ccc(C(=O)NN2CCCCC2)nc1-c1cccc(Cl)c1` [Example 52, 6-(3-Chloro-phenyl)-5-methyl-pyridine-2-carboxylic acid piperidin-1-yl-amide], the concentration for a half-maximal effect (EC50) at human CB2 receptors was 322 nM; at human CB1 receptors it was more than 10000 nM.

Regarding `Cc1nc([C@H](CC2CC2)NC(=O)c2ccc(C3CCCC3)c(OCC3CC3)n2)no1` [Example 53, 5-Cyclopentyl-6-cyclopropylmethoxy-pyridine-2-carboxylic acid [(S)-2-cyclopropyl-1-(5-methyl-[1,2,4]oxadiazol-3-yl)-ethyl]-amide], the half-maximal effective concentration (EC50) was 45.7 nM at human CB2 receptors and more than 10000 nM on human CB1 receptors.

For the compound `Cc1nc(C(C)(C)NC(=O)c2ccc(C3CCCC3)c(OCC3CC3)n2)no1` [Example 54, 5-Cyclopentyl-6-cyclopropylmethoxy-pyridine-2-carboxylic acid [1-methyl-1-(5-methyl-[1,2,4]oxadiazol-3-yl)-ethyl]-amide], the EC50 at human CB2 receptors came out at 11.4 nM; on human CB1 receptors, 2160 nM.

As for `CC(C)(NC(=O)c1ccc(C2CCCC2)c(OCC2CC2)n1)c1nccs1` [Example 55, 5-Cyclopentyl-6-cyclopropylmethoxy-pyridine-2-carboxylic acid (1-methyl-1-thiazol-2-yl-ethyl)-amide], the half-maximal effective concentration (EC50) on human CB2 receptors amounted to 31.7 nM; on human CB1 receptors, 1390 nM.

As for `CC(C)C[C@H](NC(=O)c1cccc(-c2cccc(Cl)c2)n1)c1nccs1` [Example 56, 6-(3-Chloro-phenyl)-pyridine-2-carboxylic acid ((S)-3-methyl-1-thiazol-2-yl-butyl)-amide], the results for the concentration for a half-maximal effect (EC50) at human CB2 receptors and on human CB1 receptors were 173 nM and more than 10000 nM, respectively.

For `Cc1nc([C@H](CC2CC2)NC(=O)c2ccc(C)c(OCC3CC3)n2)no1` [Example 57, 6-Cyclopropylmethoxy-5-methyl-pyridine-2-carboxylic acid [(S)-2-cyclopropyl-1-(5-methyl-[1,2,4]oxadiazol-3-yl)-ethyl]-amide], the EC50 was 319 nM on human CB2 receptors and more than 10000 nM on human CB1 receptors.

For the compound `CC(C)(NC(=O)c1ccc(Cl)c(-c2cccc(Cl)c2)n1)c1nccs1` [Example 58, 5-Chloro-6-(3-chloro-phenyl)-pyridine-2-carboxylic acid (1-methyl-1-thiazol-2-yl-ethyl)-amide], the results for the EC50 at human CB2 receptors and at human CB1 receptors were 104 nM and 1110 nM, respectively.
